Assay results as given in patent publication US6642392B1 (priority 1997, dated 2003).

Tests used:
Format in all cases: in vivo
Phytophthora infestans = settings: tomato late blight; 100 = 100% disease control, 0 = no control; unmarked entries (standard test concentration)
Botrytis cinerea = experiment: Test E: gray mold, preventive spray on cucumber seedlings; settings: gray mold on cucumber; 100 = 100% disease control, 0 = no control; unmarked entries (standard test concentration)
In short: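 Preventive spray on cucumber seedlings used a suspension (3% acetone, 250 ppm Trem 014), applied to run-off one day before inoculation with Botrytis cinerea spores. Plants were held 48 h at 20° C in saturated air, then 5 days at 20° C. Percent disease control was scored relative to untreated plants.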

[1] = test system: Eiysiphe graminis f. sp. tritici; experiment: Test A: wheat powdery mildew, preventive spray on wheat seedlings; settings: wheat powdery mildew; 100 = 100% disease control, 0 = no control relative to controls; unmarked entries (standard test concentration)
In short: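 Preventive test: seedlings inoculated with powdery mildew spores one day after run-off spraying of a suspension. Ratings after 7 days in a 20° C growth chamber express percent disease control versus controls.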

Puccinia recondita = experiment: Test B: wheat leaf rust, preventive spray on wheat seedlings; settings: wheat leaf rust; 100 = 100% disease control, 0 = no control; unmarked entries (standard test concentration)
In short: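 Preventive test: P. recondita spores were applied one day after a run-off spray of compound suspension on wheat seedlings. Plants had 24 h at 20 °C in saturated air plus 6 days in a 20 °C growth chamber. Scoring is % disease control (100 = full) relative to controls.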

Pyricularia oryzae = settings: rice blast; 100 = 100% disease control, 0 = no control; unmarked entries (standard test concentration)

SMILES	Test D disease control rating (Phytophthora infestans)	Test E disease control rating (Botrytis cinerea)	Test A disease control rating [1]	Test B disease control rating (Puccinia recondita)	Test C disease control rating (Pyricularia oryzae)
C[C@H](COc1ccccc1)NC(=O)C(C#N)C(C)(C)C (single isomer, unassigned) [1d]	0%	0%	92%	0%	100%
C[C@H](COc1ccccc1)NC(=O)C(C#N)C(C)(C)C (single isomer, unassigned) [1e]	80%	47%	92%	0%	100%
C[C@H](COc1ccccc1F)NC(=O)C(C#N)C(C)(C)C (single isomer, unassigned) [2b]	0%	0%	0%	0%	100%
C[C@H](COc1ccccc1F)NC(=O)C(C#N)C(C)(C)C (single isomer, unassigned) [2c]	24%	0%	86%	0%	100%
CC(COc1cccc(F)c1)NC(=O)C(C#N)C(C)(C)C (single isomer, unassigned) [3b]	32%	0%	0%	0%	86%
CC(COc1cccc(F)c1)NC(=O)C(C#N)C(C)(C)C (single isomer, unassigned) [3c]	4%	0%	38%	0%	100%
C[C@H](COc1cccc(F)c1)NC(=O)C(C#N)C(C)(C)C (single isomer, unassigned) [3d]	99%	0%	92%	0%	100%
C[C@H](COc1cccc(F)c1)NC(=O)C(C#N)C(C)(C)C (single isomer, unassigned) [3e]	68%	0%	86%	0%	100%
CC(COc1ccc(F)cc1)NC(=O)C(C#N)C(C)(C)C (single isomer, unassigned) [4a]	66%	0%	0%	67%	99%
CC(COc1ccc(F)cc1)NC(=O)C(C#N)C(C)(C)C (single isomer, unassigned) [4b]	89%	82%	86%	0%	99%
CC(COc1cccc(Cl)c1)NC(=O)C(C#N)C(C)(C)C (single isomer, unassigned) [6a]	0%	0%	0%	0%	74%
CC(COc1cccc(Cl)c1)NC(=O)C(C#N)C(C)(C)C (single isomer, unassigned) [6c]	9%	0%	0%	0%	97%
C[C@H](COc1cccc(Cl)c1)NC(=O)C(C#N)C(C)(C)C (single isomer, unassigned) [6d]	0%	0%	77%	28%	97%
C[C@H](COc1cccc(Cl)c1)NC(=O)C(C#N)C(C)(C)C (single isomer, unassigned) [6e]	96%	70%	0%	0%	100%
CC(COc1ccc(Cl)cc1)NC(=O)C(C#N)C(C)(C)C (single isomer, unassigned) [7a]	89%	0%	77%	85%	91%
CC(COc1ccc(Cl)cc1)NC(=O)C(C#N)C(C)(C)C (single isomer, unassigned) [7b]	89%	47%	77%	0%	74%

SMILES	Test D disease control rating (Phytophthora infestans)	Test E disease control rating (Botrytis cinerea)	Test A disease control rating [1]	Test B disease control rating (Puccinia recondita)	Test C disease control rating (Pyricularia oryzae)
C[C@H](COc1ccc(Cl)cc1)NC(=O)C(C#N)C(C)(C)C (single isomer, unassigned) [7c]	9%	45%	0%	0%	86%
C[C@H](COc1ccc(Cl)cc1)NC(=O)C(C#N)C(C)(C)C (single isomer, unassigned) [7d]	0%	6%	62%	68%	99%
C[C@H](COc1ccccc1Br)NC(=O)C(C#N)C(C)(C)C (single isomer, unassigned) [8b]	89%	47%	37%	0%	100%
C[C@H](COc1ccccc1Br)NC(=O)C(C#N)C(C)(C)C (single isomer, unassigned) [8c]	0%	0%	0%	0%	100%
C[C@H](COc1cccc(Br)c1)NC(=O)C(C#N)C(C)(C)C (single isomer, unassigned) [9b]	28%	0%	62%	68%	99%
C[C@H](COc1cccc(Br)c1)NC(=O)C(C#N)C(C)(C)C (single isomer, unassigned) [9c]	51%	0%	62%	28%	100%
CC(COc1ccc(Br)cc1)NC(=O)C(C#N)C(C)(C)C (single isomer, unassigned) [10a]	23%	0%	0%	27%	86%
CC(COc1ccc(Br)cc1)NC(=O)C(C#N)C(C)(C)C (single isomer, unassigned) [10b]	95%	0%	62%	67%	86%
C[C@H](COc1ccc(Br)cc1)NC(=O)C(C#N)C(C)(C)C (single isomer, unassigned) [10c]	35%	0%	0%	86%	53%
C[C@H](COc1ccc(Br)cc1)NC(=O)C(C#N)C(C)(C)C (single isomer, unassigned) [10d]	35%	45%	77%	0%	74%
C[C@H](COc1cccc(I)c1)NC(=O)C(C#N)C(C)(C)C (single isomer, unassigned) [12a]	0%	0%	86%	68%	91%
C[C@H](COc1cccc(I)c1)NC(=O)C(C#N)C(C)(C)C (single isomer, unassigned) [12b]	68%	0%	77%	0%	94%
C[C@H](COc1ccccc1C#N)NC(=O)C(C#N)C(C)(C)C (single isomer, unassigned) [13b]	4%	83%	0%	0%	86%
Cc1ccc(OC[C@@H](C)NC(=O)C(C#N)C(C)(C)C)c(Cl)c1 (single isomer, unassigned) [14a]	45%	58%	0%	0%	94%
Cc1ccc(OC[C@@H](C)NC(=O)C(C#N)C(C)(C)C)c(Cl)c1 (single isomer, unassigned) [14b]	23%	0%	61%	0%	86%
